Data published in publication PMC8398847, “Isavuconazole: Thermodynamic Evaluation of Processes Sublimation, Dissolution and Partition in Pharmaceutically Relevant Media” (Molecules, 2021).
≈ marks a conversion by molar mass, not a printed value. Like-named read-outs stand apart in the source and are kept apart here.

What was measured:
Type in all cases: physicochemical
[1] = PXRD analysis of bottom phases after solubility experiments; conditions: all the studied solvents; no solvated forms
Protocol: The IVZ solubility values in buffer solutions of different acidity, ethanol, propanol, 1-octanol and hexane within the temperature range of 293.15–313.15 K were determined by the isothermal saturation method and are presented in Table 2 and Figure 5. After the solubility experiments, the bottom phases were removed from the saturated solutions and analyzed by the PXRD method.
After the solubility study was complete, PXRD analysis was performed on isavuconazole powders recovered from solvents. All samples were measured at 40 kV and 40 mA using a Bruker D8 Advance diffractometer with CuKa radiation (λ = 1.5406 Å) at room temperature. Diffraction patterns for the samples were collected by changing the angle of diffraction (2θ) from 5° to 30° with a step size 0.03°.

[2] = Partition experiment, 1-octanol/buffer pH 7.4, shake flask; conditions: for logP at 24 h: 1-octanol/buffer pH 7.4, pH 7.4, 1-octanol/buffer pH 7.4, read-out: logP*O/B (mole fraction scale); for PO/B / logPO/B / sB · 10^6 (equilibrium molar concentration, buffer phase) / sO · 10^3 (equilibrium molar concentration, organic phase) / xB · 10^7 (mole fraction, buffer phase) / xo · 10^4 (mole fraction, 1-octanol phase): 1-octanol/buffer pH 7.4
Protocol: The partition coefficients in the 1-octanol/buffer pH 7.4 system were determined by the shake flask method in the temperature range 293.15–313.15 K. The total volume of the two-phase system 80 cm^3 with the ratio of the organic phase to the volume of the aqueous phase 1:1 was used. Before the experiment, both solvents were mutually saturated by stirring in a large vessel for two days. […] The flasks with the test compound were stirred for 24 h in an air thermostat until complete equilibrium was ensured, as evidenced by the absence of turbidity in each of the phases. The final drug concentrations in both immiscible phases were measured spectrophotometrically.
The partition coefficients in 1-octanol/buffer system (PO/B) were calculated as the ratio of the equilibrium molar concentrations in the organic (sO) and buffer (sB )phases:PO/B =sO/sB(9)
The value P*O/B expressed in mole fraction were determined by follow equation:P*O/B = xO/xB(10)
The standard transfer enthalpy of drug was calculated based on the experimental temperature dependence of partition coefficients using van’t Hoff method:(11) d(lnPO/B*)/dT=ΔtrH^0/RT^2 whereas the standard Gibbs energy of transfer process from the buffer to 1-octanol was evaluated:∆trG° = −RTlnP*O/B(12)
The standard transfer entropy (∆trS°) is obtained by means of relationship:∆trS° =(∆trH° − ∆trG°)/T(13)
The transfer thermodynamic functions represent the change in the enthalpy and entropy terms when one solute mole is transferred from the aqueous phase to the organic phase at infinite dilution.

[3] = Solubility by isothermal saturation (shake flask) method
Protocol: Solubility of drug was measured by the classical shake flask method at five temperatures: 293, 298, 303, 308 and 313 ± 0.2 K. This method determines the concentration of a test substance in a saturated solution, i.e., in equilibrium with the solid phase at a strictly fixed temperature. The compound studied and the selected solvent were placed into glass ampoules and stirred in an air thermostat.
The solid phase was sedimentated after stirring within 2 h. Then, the solutions were centrifuged using a thermostatic centrifuge Biofuge Stratos (Thermo scientific, Germany) at the appropriate temperature of the experiment for 5 min. The solid phase was removed by filtration using a filter MILLEX®HA 0.22 μm (Millipore, Ireland). The resulting solution, if necessary, was diluted with an appropriate solvent and examined on a Carry 50 spectrophotometer (Varian, Palo Alto, CA, USA, Software Version 3.00 (339)) in the ultraviolet region of the spectrum (operating wavelength range λ = 200–400 nm) with an accuracy of 2–4%.
The experimental value of solubility is an average value of three independent experiments. The absorption maximums for isavuconazole in the selected solvents have been determined at 274 nm in buffers solutions (Figure 4) and as 283 nm in hexane and alcohols (Figure S8). The calibration was carried out at room temperature using the solutions with known concentrations of drug in selected solvents.
The mole fraction concentration was calculated based on molarity (S, mol·L^−1) using Equation (8):(8) x=M2S/S(M2−M1)+1000ρ, where M1 and M2 are the molar masses of […], respectively, and ρ (g·cm^−3) is the density of the pure solvents. Densities of buffers solutions (pH 1.2, 2.0 and 7.4) were measured using densitometer DMA 4500 (Anton Paar, Austria) and published earlier. The values of densities using for conversion are given in Table S4 (Supporting Information).

[4] = transfer from buffer pH 7.4 to 1-octanol

C[C@@H](c1nc(-c2ccc(C#N)cc2)cs1)[C@](O)(Cn1cncn1)c1cc(F)ccc1F [IVZ, Isavuconazole]
solid-phase stability during solubility experiments (PXRD) [1]: stable
logP at 24 h ([2]; 293.15 K): 3.44
logP at 24 h ([2]; 298.15 K): 3.5
logP at 24 h ([2]; 303.15 K): 3.56
logP at 24 h ([2]; 308.15 K): 3.62
logP at 24 h ([2]; 313.15 K): 3.68
PO/B ([2]; 293.15 K): 313.71
logPO/B ([2]; 293.15 K): 2.50
sB · 10^6 (equilibrium molar concentration, buffer phase) ([2]; 293.15 K): 6.85
sO · 10^3 (equilibrium molar concentration, organic phase) ([2]; 293.15 K): 2.15
xB · 10^7 (mole fraction, buffer phase) ([2]; 293.15 K): 1.22
xo · 10^4 (mole fraction, 1-octanol phase) ([2]; 293.15 K): 3.39
PO/B ([2]; 298.15 K): 359.18
logPO/B ([2]; 298.15 K): 2.56
sB · 10^6 (equilibrium molar concentration, buffer phase) ([2]; 298.15 K): 5.98
sO · 10^3 (equilibrium molar concentration, organic phase) ([2]; 298.15 K): 2.15
xB · 10^7 (mole fraction, buffer phase) ([2]; 298.15 K): 1.07
xo · 10^4 (mole fraction, 1-octanol phase) ([2]; 298.15 K): 3.40
PO/B ([2]; 303.15 K): 413.63
logPO/B ([2]; 303.15 K): 2.62
sB · 10^6 (equilibrium molar concentration, buffer phase) ([2]; 303.15 K): 5.20
sO · 10^3 (equilibrium molar concentration, organic phase) ([2]; 303.15 K): 2.15
xB · 10^7 (mole fraction, buffer phase) ([2]; 303.15 K): 0.93
xo · 10^4 (mole fraction, 1-octanol phase) ([2]; 303.15 K): 3.42
PO/B ([2]; 308.15 K): 474.77
logPO/B ([2]; 308.15 K): 2.68
sB · 10^6 (equilibrium molar concentration, buffer phase) ([2]; 308.15 K): 4.53
sO · 10^3 (equilibrium molar concentration, organic phase) ([2]; 308.15 K): 2.15
xB · 10^7 (mole fraction, buffer phase) ([2]; 308.15 K): 0.81
xo · 10^4 (mole fraction, 1-octanol phase) ([2]; 308.15 K): 3.43
PO/B ([2]; 313.15 K): 535.22
logPO/B ([2]; 313.15 K): 2.73
sB · 10^6 (equilibrium molar concentration, buffer phase) ([2]; 313.15 K): 4.02
sO · 10^3 (equilibrium molar concentration, organic phase) ([2]; 313.15 K): 2.15
xB · 10^7 (mole fraction, buffer phase) ([2]; 313.15 K): 0.72
xo · 10^4 (mole fraction, 1-octanol phase) ([2]; 313.15 K): 3.45
TΔtrS° [2, 4]: TΔtrS° = 40.9 ± 1.5/kJ·mol^−1
ΔtrG° [2, 4]: ΔtrG° = −19.99 ± 0.4/kJ·mol^−1
ΔtrH° [2, 4]: ΔtrH° = 20.95 ± 0.2/kJ·mol^−1
ΔtrS° [2, 4]: ΔtrS° = 137.3 ± 5.2/J·mol^−1K^−1
solubility ([3]; aqueous buffer solutions, pH 7.4, buffers pH 7.4, 2.0, 1.2, 298.15 K, read-out: solubility in aqueous buffer solutions): 8.13 to 42.4 µM (≈ 3.56 to 18.5 µg/mL)
solubility ([3]; buffer pH 7.4, pH 7.4, aqueous buffer, thermodynamic from solid, buffer pH 7.4, 293.15 K, read-out: solubility S·10^6): 6.67 µM (≈ 2.92 µg/mL)
solubility ([3]; buffer pH 7.4, pH 7.4, aqueous buffer, thermodynamic from solid, buffer pH 7.4, 298.15 K, read-out: solubility S·10^6): 8.13 µM (≈ 3.56 µg/mL)
solubility ([3]; buffer pH 7.4, pH 7.4, aqueous buffer, thermodynamic from solid, buffer pH 7.4, 303.15 K, read-out: solubility S·10^6): 10 µM (≈ 4.37 µg/mL)
solubility ([3]; buffer pH 7.4, pH 7.4, aqueous buffer, thermodynamic from solid, buffer pH 7.4, 308.15 K, read-out: solubility S·10^6): 12.2 µM (≈ 5.32 µg/mL)
solubility ([3]; buffer pH 7.4, pH 7.4, aqueous buffer, thermodynamic from solid, buffer pH 7.4, 313.15 K, read-out: solubility S·10^6): 14.5 µM (≈ 6.37 µg/mL)
solubility in buffer pH 7.4 lower than in pH 1.2 ([3]; buffer pH 7.4 vs pH 1.2): 80%
solubility of uncharged forms in buffer pH 7.4 relative to ionized forms in buffer pH 1.2 ([3]; buffer pH 7.4 vs pH 1.2): five times lower
solubility ([3]; ethanol, 298.15 K, read-out: solubility): 180000 µM (≈ 78700 µg/mL)
solubility ([3]; hexane, organic solvent or mixture, thermodynamic from solid, hexane, 293.15 K, read-out: solubility S·10^4): 423 µM (≈ 185 µg/mL)
solubility ([3]; hexane, organic solvent or mixture, thermodynamic from solid, hexane, 298.15 K, read-out: solubility S·10^4): 537 µM (≈ 235 µg/mL)
solubility ([3]; hexane, organic solvent or mixture, thermodynamic from solid, hexane, 303.15 K, read-out: solubility S·10^4): 677 µM (≈ 296 µg/mL)
solubility ([3]; hexane, organic solvent or mixture, thermodynamic from solid, hexane, 308.15 K, read-out: solubility S·10^4): 847 µM (≈ 371 µg/mL)
solubility ([3]; hexane, organic solvent or mixture, thermodynamic from solid, hexane, 313.15 K, read-out: solubility S·10^4): 1050 µM (≈ 459 µg/mL)
solubility ([3]; seven solvents (buffers pH 1.2, 2.0, 7.4; hexane; alcohols), seven solvents, 293.15 to 313.15 K, read-out: solubility, span over solvents): 6.7 to 300000 µM (≈ 2.93 to 131000 µg/mL)
